Data on 2 compounds can be found in patent US11690816B2, “Unit doses for immediate release of GHB or of one of the therapeutically acceptable salts thereof, administered orally, and the use thereof to maintain alcohol abstinence” (DEBREGEAS ET ASSOCIES PHARMA, priority 2016, dated 2023).

The conditions of series [1]: patients with moderate or severe liver disease, same administered dose; cited from earlier work.
Series [2] can be described thus: AUC and CMax values dependent on the doses used. Particulars: human, in vivo, oral. The source says:
The applicant has found the following AUC and CMax values, which are dependent on the doses used, for doses of 0.37 g, 0.75 g, 1.25 g and 1.75 g: […]

Series [3] relates to alcohol-dependent patients. The series is described as follows: phase IIb/III clinical trial, maintaining of alcohol abstinence (PDA, TAC, HDD). The series is classed as in vivo, human. As for the experimental part:
The following doses were examined: • 0.75 g sodium oxybate three times daily—i.e. 2.25 g per day (99 patients) • 1.25 g sodium oxybate three times daily—i.e. 3.75 g per day (99 patients) • 1.75 g sodium oxybate three times daily—i.e. 5.25 g per day (99 patients) • 2.25 g sodium oxybate three times daily—i.e. 6.75 g per day (100 patients) • Placebo group (99 patients)
The unit doses, packaged in sachets, were administered via oral route in solid form, more particularly in the form of granules.
Efficacy was measured via percentage days of abstinence (PDA), reduced daily intake of alcohol (TAC) and the number of heavy drinking days (HDD). It was sought to analyse the correlation between efficacy of treatment and dose in mg/kg/d. In this respect the conversion to mg/kg/d was made using the following formula: unit dose in g of sodium oxybate×3/patient weight.
In the remainder of the present description, reference is made to two categories of alcoholic patients: • patients with mild to moderate alcohol dependence; • patients with severe to very severe alcohol dependence.

Take `O=C(O)CCCO` [gamma-hydroxybutyric acid]: in series [1], the “increase of the main pharmacokinetic parameters compared with patients not suffering from liver disease” value was “over 120%”.
A word on the AUC(0-t): it is the area under the concentration-time curve up to a stated or last time point. Low values mean less exposure, high ones more exposure. The term Cmax denotes the peak of the concentration-time curve. `O=C(O)CCCO` [sodium oxybate]: the AUC(0-t) in series [2] (0.37 g dose) is 14800 ng·h/mL; in series [2] (0.75 g dose), 30000 ng·h/mL; in series [2] (1.25 g dose) it was 50000 ng·h/mL; in series [2] (1.75 g dose), 70000 ng·h/mL. Moreover, the Cmax was 11500 ng/mL in series [2] (0.37 g dose), 23000 ng/mL in series [2] (0.75 g dose), 39000 ng/mL in series [2] (1.25 g dose) and 54500 ng/mL in series [2] (1.75 g dose). In addition, in series [3] (mild or moderate alcohol dependence, doses higher than 1.25 g), the “efficacy as share of the efficacy of the optimal dose” value is recorded as “about 20%”. Moreover, the “unit dose of optimum efficacy (statistical models)” value in series [3] (mildly or moderately alcohol-dependent patients without liver disease, three times daily) was determined as 0.75 g. Further, in series [3] (severe or very severe alcohol dependence without liver disease, above 1.75 g three times daily), the side effects result is “side effects become more numerous and frequent, in particular a sedative effect with nausea and marked fatigue”. The “optimum unit dose (polynomial regression models)” value in series [3] (severe or very severe alcohol dependence, without liver disease, three times daily) is listed as “about 1.5 g”. Further, the “efficacy lower than that of the optimal dose” value in series [3] (severe or very severe alcohol dependence, doses lower than 1.25 g or higher than 1.75 g) is on record as “up to 80%”.
